How the values were obtained:
[1] = Crystal form stability study (influencing factor experiments); format: physicochemical; details: for Physical and chemical properties (conclusion of influencing factor experiments): high temperatures and high humidities for 30 days
Procedure: Samples of the crystal forms A, B, C, I, J, and K of the compound represented by formula (I) were taken, spread in open containers, and left to stand under conditions of light exposure (4500 Lux), high temperatures (40° C. and 60° C.), and high humidities (RH 75% and RH 92.5%) for 30 days to investigate their stability, and the results are shown in Table 16.

[2] = Long-term/accelerated stability; format: physicochemical
[3] = 40° C., 10 days, open container
[4] = 40° C., 30 days, open container
[5] = 60° C., 10 days, open container
[6] = 60° C., 30 days, open container
[7] = 75% RH, 10 days, open container
[8] = 75% RH, 30 days, open container
[9] = 92.5% RH, 5 days, open container
[10] = 92.5% RH, 10 days, open container
[11] = 92.5% RH, 30 days, open container
[12] = light exposure (4500 Lux), 5 days, open container
[13] = light exposure (4500 Lux), 10 days, open container
[14] = light exposure (4500 Lux), 30 days, open container

SMILES: CCc1c(F)ccc2cc(O)cc(-c3nc4c5c(nc(OC[C@@]67CCCN6C[C@H](F)C7)nc5c3F)N3C[C@H]5CC[C@H](N5)[C@H]3CO4)c12 [Crystal form C, 5-Ethyl-6-fluoro-4-((5aS,6S,9R)-1-fluoro-12-(((2R,7aS)-2-fluorotetrahydro-1H-pyrrolizin-7a(5H)-yl)methoxy)-5a,6,7,8,9,10-hexahydro-5H-4-oxa-3,10a,11,13,14-pentaaza-6,9-methanonaphtho[1,8-ab]heptalen-2-yl)naphthalen-2-ol]
- Color and state ([1]; 40° C., 5 days, open container): Off-white solid
- Crystal form ([1]; 40° C., 5 days, open container): Did not change
- Purity % ([1]; 40° C., 5 days, open container): 99.3%
- Color and state [1, 3]: Off-white solid
- Crystal form [1, 3]: Did not change
- Purity % [1, 3]: 99.3%
- Color and state [1, 4]: Off-white solid
- Crystal form [1, 4]: Did not change
- Purity % [1, 4]: 98.5%
- Color and state ([1]; 60° C., 5 days, open container): Off-white solid
- Crystal form ([1]; 60° C., 5 days, open container): Did not change
- Purity % ([1]; 60° C., 5 days, open container): 99.0%
- Color and state [1, 5]: Off-white solid
- Crystal form [1, 5]: Did not change
- Purity % [1, 5]: 99.0%
- Color and state [1, 6]: Off-white solid
- Crystal form [1, 6]: Did not change
- Purity % [1, 6]: 97.9%
- Color and state ([1]; 75% RH, 5 days, open container): Off-white solid
- Crystal form ([1]; 75% RH, 5 days, open container): Did not change
- Purity % ([1]; 75% RH, 5 days, open container): 99.6%
- Color and state [1, 7]: Off-white solid
- Crystal form [1, 7]: Did not change
- Purity % [1, 7]: 99.6%
- Color and state [1, 8]: Off-white solid
- Crystal form [1, 8]: Did not change
- Purity % [1, 8]: 99.5%
- Color and state [1, 9]: Off-white solid
- Crystal form [1, 9]: Did not change
- Purity % [1, 9]: 99.6%
- Color and state [1, 10]: Off-white solid
- Crystal form [1, 10]: Did not change
- Purity % [1, 10]: 99.6%
- Color and state [1, 11]: Off-white solid
- Crystal form [1, 11]: Did not change
- Purity % [1, 11]: 99.4%
- Color and state ([1]; Initial, 0 days): Off-white solid
- Purity % ([1]; Initial, 0 days): 99.7%
- Physical and chemical properties (conclusion of influencing factor experiments) [1]: good physical and chemical properties
- Color and state [1, 12]: Off-white solid
- Crystal form [1, 12]: Did not change
- Purity % [1, 12]: 99.2%
- Color and state [1, 13]: Off-white solid
- Crystal form [1, 13]: Did not change
- Purity % [1, 13]: 98.7%
- Color and state [1, 14]: Pale yellow solid
- Crystal form [1, 14]: Did not change
- Purity % [1, 14]: 97.9%
- Purity % 1 month ([2]; 25° C./60% RH): 99.7%
- Purity % 2 months ([2]; 25° C./60% RH): 99.6%
- Purity % 3 months ([2]; 25° C./60% RH): 99.6%
- Purity % Initial ([2]; 25° C./60% RH): 99.7%
- Purity % 1 month ([2]; 40° C./75% RH): 99.5%
- Purity % 2 months ([2]; 40° C./75% RH): 99.4%
- Purity % 3 months ([2]; 40° C./75% RH): 99.2%
- Purity % Initial ([2]; 40° C./75% RH): 99.7%

SMILES: CCc1c(F)ccc2cc(O)cc(-c3nc4c5c(nc(OC[C@@]67CCCN6C[C@H](F)C7)nc5c3F)N3C[C@H]5CC[C@H](N5)[C@H]3CO4)c12 [Crystal form I, 5-Ethyl-6-fluoro-4-((5aS,6S,9R)-1-fluoro-12-(((2R,7aS)-2-fluorotetrahydro-1H-pyrrolizin-7a(5H)-yl)methoxy)-5a,6,7,8,9,10-hexahydro-5H-4-oxa-3,10a,11,13,14-pentaaza-6,9-methanonaphtho[1,8-ab]heptalen-2-yl)naphthalen-2-ol]
- Color and state ([1]; 40° C., 5 days, open container): Off-white solid
- Crystal form ([1]; 40° C., 5 days, open container): Did not change
- Purity % ([1]; 40° C., 5 days, open container): 99.6%
- Color and state [1, 3]: Off-white solid
- Crystal form [1, 3]: Did not change
- Purity % [1, 3]: 99.4%
- Color and state [1, 4]: Off-white solid
- Crystal form [1, 4]: Did not change
- Purity % [1, 4]: 99.3%
- Color and state ([1]; 60° C., 5 days, open container): Off-white solid
- Crystal form ([1]; 60° C., 5 days, open container): Did not change
- Purity % ([1]; 60° C., 5 days, open container): 99.6%
- Color and state [1, 5]: Off-white solid
- Crystal form [1, 5]: Did not change
- Purity % [1, 5]: 99.4%
- Color and state [1, 6]: Off-white solid
- Crystal form [1, 6]: Did not change
- Purity % [1, 6]: 99.3%
- Color and state ([1]; 75% RH, 5 days, open container): Off-white solid
- Crystal form ([1]; 75% RH, 5 days, open container): Did not change
- Purity % ([1]; 75% RH, 5 days, open container): 99.6%
- Color and state [1, 7]: Off-white solid
- Crystal form [1, 7]: Did not change
- Purity % [1, 7]: 99.6%
- Color and state [1, 8]: Off-white solid
- Crystal form [1, 8]: Did not change
- Purity % [1, 8]: 99.6%
- Color and state [1, 9]: Off-white solid
- Crystal form [1, 9]: Did not change
- Purity % [1, 9]: 99.5%
- Color and state [1, 10]: Off-white solid
- Crystal form [1, 10]: Did not change
- Purity % [1, 10]: 99.5%
- Color and state [1, 11]: Off-white solid
- Crystal form [1, 11]: Did not change
- Purity % [1, 11]: 99.6%
- Color and state ([1]; Initial, 0 days): Off-white solid
- Crystal form ([1]; Initial, 0 days): Crystal form I
- Purity % ([1]; Initial, 0 days): 99.6%
- Physical and chemical properties (conclusion of influencing factor experiments) [1]: good physical and chemical properties
- Color and state [1, 12]: Off-white solid
- Crystal form [1, 12]: Did not change
- Purity % [1, 12]: 99.6%
- Color and state [1, 13]: Off-white solid
- Crystal form [1, 13]: Did not change
- Purity % [1, 13]: 99.5%
- Color and state [1, 14]: Off-white solid
- Crystal form [1, 14]: Did not change
- Purity % [1, 14]: 99.2%
- Purity % 1 month ([2]; 25° C./60% RH): 99.6%
- Purity % 2 months ([2]; 25° C./60% RH): 99.6%
- Purity % 3 months ([2]; 25° C./60% RH): 99.6%
- Purity % Initial ([2]; 25° C./60% RH): 99.6%
- Purity % 1 month ([2]; 40° C./75% RH): 99.6%
- Purity % 2 months ([2]; 40° C./75% RH): 99.4%
- Purity % 3 months ([2]; 40° C./75% RH): 99.6%
- Purity % Initial ([2]; 40° C./75% RH): 99.6%

SMILES: CCc1c(F)ccc2cc(O)cc(-c3nc4c5c(nc(OC[C@@]67CCCN6C[C@H](F)C7)nc5c3F)N3C[C@H]5CC[C@H](N5)[C@H]3CO4)c12 [Crystal form J, 5-Ethyl-6-fluoro-4-((5aS,6S,9R)-1-fluoro-12-(((2R,7aS)-2-fluorotetrahydro-1H-pyrrolizin-7a(5H)-yl)methoxy)-5a,6,7,8,9,10-hexahydro-5H-4-oxa-3,10a,11,13,14-pentaaza-6,9-methanonaphtho[1,8-ab]heptalen-2-yl)naphthalen-2-ol]
- Color and state ([1]; 40° C., 5 days, open container): Off-white solid
- Crystal form ([1]; 40° C., 5 days, open container): Did not change
- Purity % ([1]; 40° C., 5 days, open container): 99.2%
- Color and state [1, 3]: Off-white solid
- Crystal form [1, 3]: Did not change
- Purity % [1, 3]: 98.8%
- Color and state [1, 4]: Off-white solid
- Crystal form [1, 4]: Did not change
- Purity % [1, 4]: 97.9%
- Color and state ([1]; 60° C., 5 days, open container): Off-white solid
- Crystal form ([1]; 60° C., 5 days, open container): Did not change
- Purity % ([1]; 60° C., 5 days, open container): 99.1%
- Color and state [1, 5]: Off-white solid
- Crystal form [1, 5]: Did not change
- Purity % [1, 5]: 98.5%
- Color and state [1, 6]: Off-white solid
- Crystal form [1, 6]: Did not change
- Purity % [1, 6]: 97.4%
- Color and state ([1]; 75% RH, 5 days, open container): Off-white solid
- Crystal form ([1]; 75% RH, 5 days, open container): Did not change
- Purity % ([1]; 75% RH, 5 days, open container): 99.6%
- Color and state [1, 7]: Off-white solid
- Crystal form [1, 7]: Did not change
- Purity % [1, 7]: 99.6%
- Color and state [1, 8]: Off-white solid
- Crystal form [1, 8]: Did not change
- Purity % [1, 8]: 99.5%
- Color and state [1, 9]: Off-white solid
- Crystal form [1, 9]: Did not change
- Purity % [1, 9]: 99.6%
- Color and state [1, 10]: Off-white solid
- Crystal form [1, 10]: Did not change
- Purity % [1, 10]: 99.5%
- Color and state [1, 11]: Off-white solid
- Crystal form [1, 11]: Did not change
- Purity % [1, 11]: 99.5%
- Color and state ([1]; Initial, 0 days): Off-white solid
- Crystal form ([1]; Initial, 0 days): Crystal form J
- Purity % ([1]; Initial, 0 days): 99.6%
- Physical and chemical properties (conclusion of influencing factor experiments) [1]: good physical and chemical properties
- Color and state [1, 12]: Off-white solid
- Crystal form [1, 12]: Did not change
- Purity % [1, 12]: 98.1%
- Color and state [1, 13]: Pale yellow solid
- Crystal form [1, 13]: Did not change
- Purity % [1, 13]: 95.5%
- Color and state [1, 14]: Pale yellow solid
- Crystal form [1, 14]: Did not change
- Purity % [1, 14]: 93.0%
- Purity % 1 month ([2]; 25° C./60% RH): 99.5%
- Purity % 2 months ([2]; 25° C./60% RH): 99.6%
- Purity % 3 months ([2]; 25° C./60% RH): 99.6%
- Purity % Initial ([2]; 25° C./60% RH): 99.6%
- Purity % 1 month ([2]; 40° C./75% RH): 99.4%
- Purity % 2 months ([2]; 40° C./75% RH): 99.3%
- Purity % 3 months ([2]; 40° C./75% RH): 99.2%
- Purity % Initial ([2]; 40° C./75% RH): 99.6%

— patent US20260209250A1, “CRYSTAL FORM OF KRAS G12D INHIBITOR AND PREPARATION METHOD THEREFOR” (priority 2022, published 2026)
